Laboratory results published in ChEMBL document CHEMBL5325396, “Discovery of Novel Acridane-Based Tubulin Polymerization Inhibitors with Anticancer and Potential Immunomodulatory Effects” (J Med Chem, 2023).

Columns and labels:
HeLa = experiment: cells; conditions: Homo sapiens, 48 h
Description: Antiproliferative activity against human HeLa cells incubated for 48 hrs by MTT assay

B16-F10 [1] = experiment: Antiproliferative activity against mouse B16-F10 cells incubated for 48 hrs by MTT assay; assay type: functional, cell-based; conditions: B16-F10, 48 h
HepG2 = experiment: Antiproliferative activity against human HepG2 cells incubated for 48 hrs by MTT assay; assay type: functional, cell-based; conditions: HepG2, 48 h
HCT-116 = experiment: Antiproliferative activity against human HCT-116 cells incubated for 48 hrs by MTT assay; assay type: functional, cell-based; conditions: HCT-116, 48 h
Tubulin = experiment: Inhibition of tubulin polymerization (unknown origin); assay type: protein-complex assay, Homo sapiens
B16-F10 [2] = experiment: Induction of apoptosis in mouse B16-F10 cells assessed as necrotic cells at 20 nM incubated for 48 hrs by annexinV-FITC/PI staining based flow cytometry (reference value: 0.064 %); assay type: functional
B16-F10 [3] = experiment: Induction of apoptosis in mouse B16-F10 cells assessed as early apoptotic cells at 20 nM incubated for 48 hrs by annexinV-FITC/PI staining based flow cytometry (reference value: 4.25 %); assay type: functional
B16-F10 [4] = experiment: Induction of cell cycle arrest in mouse B16-F10 cells assessed as accumulation at S phase at 20 nM incubated for 24 hrs by PI staining based flow cytometry (reference value: 21.79 %); assay type: functional
B16-F10 [5] = experiment: Induction of apoptosis in mouse B16-F10 cells assessed as viable cells at 20 nM incubated for 48 hrs by annexinV-FITC/PI staining based flow cytometry (reference value: 93.6 %); assay type: functional; conditions: read-out: Activity
B16-F10 [6] = experiment: Induction of apoptosis in mouse B16-F10 cells assessed as late apoptotic cells at 20 nM incubated for 48 hrs by annexinV-FITC/PI staining based flow cytometry (reference value: 2.06 %); assay type: functional
B16-F10 [7] = experiment: Induction of cell cycle arrest in mouse B16-F10 cells assessed as accumulation at G1 phase at 20 nM incubated for 24 hrs by PI staining based flow cytometry (reference value: 52.77 %); assay type: functional
B16-F10 [8] = experiment: Induction of cell cycle arrest in mouse B16-F10 cells assessed as accumulation at G2 phase at 20 nM incubated for 24 hrs by PI staining based flow cytometry (reference value: 23.04 %); assay type: functional
B16-F10 [9] = experiment: Immunomodulatory activity in mouse B16-F10 cells allografted in C57 mouse assessed as decrease in PD-L1 level at 10 mg/kg, ip administered consecutively for 14 days relative to control; assay type: functional; parameters: scale not given: the % may be the effect or the level left; conditions: time 14 day
B16-F10 [10] = experiment: Antitumor activity against mouse B16-F10 cells allografted in C57 mouse assessed as tumor growth inhibition at 10 mg/kg, ip administered consecutively for 14 days; assay type: functional; conditions: B16-F10, 336 h, time 14 day, read-out: TGI
[11] = Toxicity in C57 mouse allografted with mouse B16-F10 cells assessed as body weight loss at 10 mg/kg, ip administered consecutively for 14 days; assay type: organism-based; conditions: in vivo, 336 h, time 14 day
B16-F10 [12] = experiment: Immunomodulatory activity in mouse B16-F10 cells allografted in C57 mouse assessed as increase in CD3-positive CD8-positive cells at 10 mg/kg, ip administered consecutively for 14 days (reference value: 6.66 %); assay type: functional; conditions: time 14 day

With `COc1cc(C(=O)N2c3cc(F)ccc3Cc3cc4ccccc4cc32)cc(OC)c1OC` the IC50 (HeLa) was 676 nM, the IC50 (B16-F10 [1]) was 752 nM and the IC50 (HepG2) was 216 nM. For the same molecule, the IC50 (HCT-116) was over 10000 nM.
In the case of `COc1cc(C(=O)N2c3ccccc3Cc3ccccc32)cc(OC)c1OC`, the IC50 (HeLa) is reported as 1200 nM, the IC50 (B16-F10 [1]) is reported as 146 nM and the IC50 (HepG2) is reported as 160 nM. It also gave an IC50 (Tubulin) of 1600 nM and an IC50 (HCT-116) of 257 nM.
Work on `COc1cc2c(c(OC)c1OC)-c1ccc(OC)c(=O)cc1[C@@H](NC(C)=O)CC2` [COLCHICINE] yielded an IC50 (HeLa) of 126 nM, an Activity (B16-F10 [2]) of 0.466% and an Activity (B16-F10 [3]) of 12.4%. For the same molecule, the IC50 (B16-F10 [1]) was 88 nM, the IC50 (HepG2) was 25 nM and the Activity (B16-F10 [4]) was 33.02%. It also gave a viability at 0.02 µM (B16-F10 [5]) of 81.5%, an Activity (B16-F10 [6]) of 5.68% and an Activity (B16-F10 [7]) of 10.06%. It also gave an Activity (B16-F10 [8]) of 55.16%.
In the case of `COc1cc(C(=O)N2c3ccccc3Cc3cc(C)ccc32)cc(OC)c1OC`, the IC50 (HeLa) is reported as 131 nM, the IC50 (B16-F10 [1]) is reported as 84 nM and the IC50 (HepG2) is reported as 83 nM. The IC50 (HCT-116) was 128 nM.
Molecule `COc1cc(C(=O)N2c3ccccc3Cc3ccc4ccccc4c32)cc(OC)c1OC` has an IC50 (HeLa) of over 10000 nM, an IC50 (B16-F10 [1]) of over 10000 nM and an IC50 (HepG2) of over 10000 nM. The IC50 (HCT-116) was over 10000 nM.
In the case of `COc1cc(C(=O)N2c3ccccc3Cc3cc(Cl)ccc32)cc(OC)c1OC`, the IC50 (HeLa) is reported as 78 nM, the IC50 (B16-F10 [1]) is reported as 106 nM and the IC50 (HepG2) is reported as 69 nM. For the same molecule, the IC50 (HCT-116) was 191 nM.
With `COc1cc(C(=O)N2c3ccccc3Cc3c(C)ccc(C)c32)cc(OC)c1OC` the IC50 (HeLa) was 49 nM, the IC50 (B16-F10 [1]) was 56 nM and the IC50 (HepG2) was 30 nM. For the same molecule, the IC50 (HCT-116) was 62 nM.
With `COc1cc(C(=O)N2c3cc(F)ccc3Cc3ccc(F)cc32)cc(OC)c1OC` the IC50 (HeLa) was 2050 nM, the IC50 (B16-F10 [1]) was 1980 nM and the IC50 (HepG2) was 661 nM. It also gave an IC50 (HCT-116) of over 10000 nM.
With `COc1cc(C(=O)N2c3cc(C)ccc3Cc3ccc(F)cc32)cc(OC)c1OC` the IC50 (HeLa) was 188 nM, the IC50 (B16-F10 [1]) was 274 nM and the IC50 (HepG2) was 30 nM. The IC50 (HCT-116) was 240 nM.
`COC(=O)c1ccc2c(c1)N(C(=O)c1cc(OC)c(OC)c(OC)c1)c1cc(F)ccc1C2` gave an IC50 (HeLa) of 1160 nM, an IC50 (B16-F10 [1]) of 1260 nM and an IC50 (HepG2) of 630 nM. The IC50 (HCT-116) was over 10000 nM.
Work on `COc1cc(C(=O)N2c3ccccc3Cc3cccc(OC)c32)cc(OC)c1OC` yielded an IC50 (HeLa) of 117 nM, an IC50 (B16-F10 [1]) of 92 nM and an IC50 (HepG2) of 161 nM. It also gave an IC50 (HCT-116) of 208 nM.
For `COc1cc(C(=O)N2c3ccccc3C(c3ccccc3)c3ccccc32)cc(OC)c1OC`, the IC50 (HeLa) was over 10000 nM, the IC50 (B16-F10 [1]) was over 10000 nM and the IC50 (HepG2) was over 10000 nM. For the same molecule, the IC50 (HCT-116) was over 10000 nM.
`COc1cc(C(=O)N2c3ccccc3Cc3ccc(Cl)cc32)cc(OC)c1OC` showed an IC50 (HeLa) of 189 nM, an IC50 (B16-F10 [1]) of 211 nM and an IC50 (HepG2) of 58 nM. The IC50 (HCT-116) was 427 nM.
`COc1cc(C(=O)N2c3cc(Br)ccc3Cc3c2ccc(C)c3C)cc(OC)c1OC` showed an IC50 (HeLa) of 104 nM, an IC50 (B16-F10 [1]) of 85 nM and an IC50 (HepG2) of 107 nM. For the same molecule, the IC50 (HCT-116) was 129 nM.
In the case of `COC(=O)c1ccc2c(c1)N(C(=O)c1cc(OC)c(OC)c(OC)c1)c1ccccc1C2`, the IC50 (HeLa) is reported as 8350 nM, the IC50 (B16-F10 [1]) is reported as 7170 nM and the IC50 (HepG2) is reported as 3280 nM. The IC50 (HCT-116) was 9370 nM.
With `COc1cc(C(=O)N2c3ccccc3Cc3ccc(F)cc32)cc(OC)c1OC` the IC50 (HeLa) was over 10000 nM, the IC50 (B16-F10 [1]) was 6900 nM and the IC50 (HepG2) was over 10000 nM. It also gave an IC50 (HCT-116) of over 10000 nM.
With `Cc1c(COc2cc(OCc3cccc(C#N)c3)c(CNC(C)(C)C(=O)O)cc2Cl)cccc1-c1ccccc1` the Activity (B16-F10 [9]) was about 45%, the inhibition in vivo at 10 mg/kg (B16-F10 [10]) was 19% and the Activity [11] was “Non-Toxic”. For the same molecule, the Activity (B16-F10 [12]) was 14.6%.
Work on `COc1cc(C(=O)N2c3cccc(Cl)c3Cc3c(C)ccc(C)c32)cc(OC)c1OC` yielded an IC50 (HeLa) of 586 nM, an IC50 (B16-F10 [1]) of 845 nM and an IC50 (HepG2) of 184 nM. For the same molecule, the IC50 (HCT-116) was 429 nM.
`COc1cc(C(=O)N2c3ccccc3Cc3c(C)cccc32)cc(OC)c1OC` gave an IC50 (HeLa) of 909 nM, an IC50 (B16-F10 [1]) of 91 nM and an IC50 (HepG2) of 102 nM. It also gave an IC50 (HCT-116) of 172 nM.
For `COc1cc(C(=O)N2c3ccccc3Cc3ccc(C(F)(F)F)cc32)cc(OC)c1OC`, the IC50 (HeLa) was 6870 nM, the IC50 (B16-F10 [1]) was 5520 nM and the IC50 (HepG2) was 2860 nM. The IC50 (HCT-116) was 6870 nM.
With `COc1cc(C(=O)N2c3cc(Cl)ccc3Cc3ccc(Cl)cc32)cc(OC)c1OC` the IC50 (HeLa) was 1030 nM, the IC50 (B16-F10 [1]) was 1020 nM and the IC50 (HepG2) was 716 nM. The IC50 (HCT-116) was over 10000 nM.
Work on `COc1ccc2c(c1)Cc1ccccc1N2C(=O)c1cc(OC)c(OC)c(OC)c1` yielded an IC50 (HeLa) of 105 nM, an IC50 (B16-F10 [1]) of 80 nM and an IC50 (HepG2) of 91 nM. The IC50 (HCT-116) was 103 nM.
Molecule `COc1cc(C(=O)N2c3ccccc3Cc3c(Cl)cccc32)cc(OC)c1OC` has an IC50 (HeLa) of 86 nM, an IC50 (B16-F10 [1]) of 157 nM and an IC50 (HepG2) of 71 nM. For the same molecule, the IC50 (HCT-116) was 250 nM.
In the case of `COc1cc(C(=O)N2c3ccccc3Cc3cc(F)ccc32)cc(OC)c1OC`, the IC50 (HeLa) is reported as 98 nM, the IC50 (B16-F10 [1]) is reported as 144 nM and the IC50 (HepG2) is reported as 35 nM. For the same molecule, the IC50 (HCT-116) was 256 nM.
